According to patent US11986471B2, “Compounds and methods of use” (Tango Therapeutics, Inc., priority 2018, dated 2024):

What was measured:
PRMT5 [1] = biological target: T1, PRMT5 (Homo sapiens, UniProt O14744); assay: PRMT5 IC50 assay in the presence of MTA as cofactor; type: biochemical; conditions: for IC50: PRMT5, MTA as cofactor; for SAM/MTA Ratio: ratio between the Ki in the presence of SAM and the Ki in the presence of MTA
T1 construct: purchased Viva (custom protein)
Procedure, shortened: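 Each compound is tested on PRMT5 in the presence of SAM, of MTA, and without any cofactor. Ki values are then back-calculated using fixed factors of 1.5 (SAM) and 13.5 (MTA), and the two Ki values are compared as a ratio.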

HAP1 MTAP-intact = assay: SDMA in-cell western assay, HAP1 MTAP-intact cell line; type: cell-based; conditions: Homo sapiens
Procedure, shortened: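 Symmetric dimethylarginine (SDMA) levels were measured by in-cell western in an isogenic HAP1 pair, one expressing endogenous MTAP and one MTAP-null, and IC50 values were derived for each line. Compounds whose IC50 ratio between the lines is 3-fold or more are classed as MTAP-selective.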

PRMT5 [2] = biological target: T1, PRMT5; assay: PRMT5 IC50 assay in the presence of SAM as cofactor; type: biochemical
Procedure, shortened: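 IC50 against PRMT5 determined with SAM as cofactor, with no cofactor, and with MTA as cofactor. Ki derived as IC50/1.5 for the SAM assay and IC50/13.5 for the MTA assay; SAM Ki to MTA Ki ratio also reported.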

PRMT5 [3] = biological target: T1, PRMT5; assay: PRMT5 IC50 assay with no cofactor; type: biochemical
Procedure, shortened: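 Enzyme: human PRMT5. Conditions: plus SAM, plus MTA, or cofactor-free. Output: IC50 (μM); Ki via IC50/1.5 (SAM) or IC50/13.5 (MTA).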

HAP1 MTAP-deleted = assay: SDMA in-cell western assay, HAP1 MTAP-deleted cell line; type: cell-based; conditions: for IC50: Homo sapiens, HAP1 MTAP-deleted cell line; for MTAP Intact/Deleted Ratio: IC50 ratio HAP1 MTAP-intact / HAP1 MTAP-deleted
Procedure, shortened: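 Symmetric dimethylarginine (SDMA) levels were measured by in-cell western in MTAP-null HAP1 cells, one half of an MTAP-isogenic pair whose partner line expresses endogenous MTAP. Compound potency is reported as IC50.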

T1 sequence (O14744 whole entry): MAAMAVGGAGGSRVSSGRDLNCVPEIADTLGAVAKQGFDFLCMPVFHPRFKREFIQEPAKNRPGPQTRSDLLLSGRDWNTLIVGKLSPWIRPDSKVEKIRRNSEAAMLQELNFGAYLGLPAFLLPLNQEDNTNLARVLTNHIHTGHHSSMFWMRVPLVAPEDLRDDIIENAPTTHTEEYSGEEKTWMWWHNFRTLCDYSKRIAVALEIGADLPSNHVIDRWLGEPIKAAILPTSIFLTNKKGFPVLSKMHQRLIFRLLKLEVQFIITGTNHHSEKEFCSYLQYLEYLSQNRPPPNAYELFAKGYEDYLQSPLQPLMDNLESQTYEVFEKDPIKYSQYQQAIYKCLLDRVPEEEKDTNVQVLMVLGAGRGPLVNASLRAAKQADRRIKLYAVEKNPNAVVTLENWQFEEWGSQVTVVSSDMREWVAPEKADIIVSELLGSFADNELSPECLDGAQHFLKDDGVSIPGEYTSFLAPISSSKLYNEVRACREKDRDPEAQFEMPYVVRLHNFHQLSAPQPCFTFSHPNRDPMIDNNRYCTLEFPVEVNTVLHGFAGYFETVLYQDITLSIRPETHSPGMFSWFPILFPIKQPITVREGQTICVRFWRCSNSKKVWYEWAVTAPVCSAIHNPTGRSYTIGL
T1 sequence (Q9BQA1 whole entry partner): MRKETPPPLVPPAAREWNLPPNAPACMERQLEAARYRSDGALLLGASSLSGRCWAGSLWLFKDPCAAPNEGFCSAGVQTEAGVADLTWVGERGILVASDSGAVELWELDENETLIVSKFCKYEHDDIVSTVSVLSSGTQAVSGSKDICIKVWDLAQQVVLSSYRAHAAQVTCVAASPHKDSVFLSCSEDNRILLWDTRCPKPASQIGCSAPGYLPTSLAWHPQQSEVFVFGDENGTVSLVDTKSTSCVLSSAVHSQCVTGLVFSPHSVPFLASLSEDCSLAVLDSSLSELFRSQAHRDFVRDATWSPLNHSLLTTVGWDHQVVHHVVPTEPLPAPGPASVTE

| Compound | IC50 (PRMT5 [1]) [nM] | IC50 (HAP1 MTAP-intact) [nM] | IC50 (PRMT5 [2]) [nM] | IC50 (PRMT5 [3]) [nM] | IC50 (HAP1 MTAP-deleted) [nM] | SAM/MTA Ratio (PRMT5 [1]) | MTAP Intact/Deleted Ratio (HAP1 MTAP-deleted) |
| --- | --- | --- | --- | --- | --- | --- | --- |
| Cc1ncoc1COc1ccc2c(c1)CCN(C[C@@H](O)CNC(=O)c1cc(NC3CCC3)nc(N3CCN(C(=O)C4CC4)CC3)c1)C2 [Compound 455, 2-(cyclobutylamino)-6-(4-cvclopropanecarbonylpiperazin-1-yl)-N-[(2S)-2-hydroxy-3-{6-[(4-methyl-1,3-oxazol-5-yl)methoxy]-1,2,3,4-tetrahydroisoquinolin-2-yl}propyl]pyridine-4-carboxamide] | 50 to 500 | < 1000 | 50 to 500 | 50 to 500 | < 1000 | A (a Ki ratio greater than or equal to 10 fold between the Ki in the presence of SAM and the Ki in the presence of MTA) | B* (an IC50 ratio greater than or equal to 3 fold but lower than 10 fold between the IC50 in the HAP1 MTAP-intact cell line and the HAP1 MTAP-deleted cell line) |
| CCN(C)c1nc(NC2COC2)cc(C(=O)NC[C@H](O)CN2CCc3cc(OCc4ocnc4C)ccc3C2)n1 [Compound 457, 2-[ethyl(methyl)amino]-N-[(2S)-2-hydroxy-3-{6-[(4-methyl-1,3-oxazol-5-yl)methoxy]-1,2,3,4-tetrahydroisoquinolin-2-yl}propyl]-6-[(oxetan-3-yl)amino]pyrimidine-4-carboxamide] | 50 to 500 | < 1000 | 50 to 500 | 500 to 5000 | < 1000 | A (a Ki ratio greater than or equal to 10 fold between the Ki in the presence of SAM and the Ki in the presence of MTA) | C* (an IC50 ratio of less than 3 fold between the IC50 in the HAP1 MTAP-intact cell line and the HAP1 MTAP-deleted cell line) |
| CC(C)C(=O)N1CCC(Nc2cc(C(=O)NC[C@H](O)CN3CCc4cc(OCc5cnco5)ccc4C3)ccn2)CC1 [Compound 458, N-[(2S)-2-hydroxy-3-[6-(oxazol-5-ylmethoxy)-3,4-dihydro-1H-isoquinolin-2-yl]propyl]-2-[[1-(2-methylpropanoyl)-4-piperidyl]amino]pyridine-4-carboxamide] | 50 to 500 | 1000 to 10000 | 50 to 500 | 500 to 5000 | < 1000 | A (a Ki ratio greater than or equal to 10 fold between the Ki in the presence of SAM and the Ki in the presence of MTA) | C* (an IC50 ratio of less than 3 fold between the IC50 in the HAP1 MTAP-intact cell line and the HAP1 MTAP-deleted cell line) |
| Cc1ncoc1COc1ccc2c(c1C)CCN(C[C@@H](O)CNC(=O)c1cc(NC3CCC3)nc(N3CCOCC3)c1)C2 [Compound 461, 2-(cyclobutylamino)-N-[(2S)-2-hydroxy-3-{5-methyl-6-[(4-methyl-1,3-oxazol-5-yl)methoxy]-1,2,3,4-tetrahydroisoquinolin-2-yl}propyl]-6-(morpholin-4-yl)pyridine-4-carboxamide] | 50 to 500 | ≥ 10000 | 50 to 500 | ≥ 5000 | 1000 to 10000 |  | B* (an IC50 ratio greater than or equal to 3 fold but lower than 10 fold between the IC50 in the HAP1 MTAP-intact cell line and the HAP1 MTAP-deleted cell line) |
| Cc1ncoc1COc1ccc2c(c1)CCN(C[C@@H](O)CNC(=O)c1cc(NC3CCC3)nc(N3CCN(C(=O)C(C)C)CC3)c1)C2 [Compound 463, 2-(cyclobutylamino)-N-[(2S)-2-hydroxy-3-{6-[(4-methyl-1,3-oxazol-5-yl)methoxy]-1,2,3,4-tetrahydroisoquinolin-2-yl}propyl]-6-[4-(2-methylpropanoyl)piperazin-1-yl]pyridine-4-carboxamide] | 50 to 500 | < 1000 | 50 to 500 | 500 to 5000 | < 1000 | A (a Ki ratio greater than or equal to 10 fold between the Ki in the presence of SAM and the Ki in the presence of MTA) | B* (an IC50 ratio greater than or equal to 3 fold but lower than 10 fold between the IC50 in the HAP1 MTAP-intact cell line and the HAP1 MTAP-deleted cell line) |

Continued, in another order:

| IC50 (PRMT5 [1]) [nM] | IC50 (HAP1 MTAP-intact) [nM] | IC50 (PRMT5 [2]) [nM] | IC50 (PRMT5 [3]) [nM] | IC50 (HAP1 MTAP-deleted) [nM] | Compound | SAM/MTA Ratio (PRMT5 [1]) | MTAP Intact/Deleted Ratio (HAP1 MTAP-deleted) |
| --- | --- | --- | --- | --- | --- | --- | --- |
| 50 to 500 | ≥ 10000 | 50 to 500 | ≥ 5000 | 1000 to 10000 | Cc1ncoc1COc1ccc2c(c1C)CCN(C[C@@H](O)CNC(=O)c1cc(NC3COC3)nc(N3CCN(C)CC3)n1)C2 [Compound 456, N-[(2S)-2-hydroxy-3-{5-methyl-6-[(4-methyl-1,3-oxazol-5-yl)methoxy]-1,2,3,4-tetrahydroisoquinolin-2-yl}propyl]-2-(4-methylpiperazin-1-yl)-6-[(oxetan-3-yl)amino]pyrimidine-4-carboxamide] | A (a Ki ratio greater than or equal to 10 fold between the Ki in the presence of SAM and the Ki in the presence of MTA) | C* (an IC50 ratio of less than 3 fold between the IC50 in the HAP1 MTAP-intact cell line and the HAP1 MTAP-deleted cell line) |
| 50 to 500 | 1000 to 10000 | 50 to 500 | 500 to 5000 | < 1000 | Cc1ncoc1COc1ccc2c(c1C)CCN(C[C@@H](O)CNC(=O)c1cc(NC3CCC3)nc(N3CCN(C(=O)C(C)C)CC3)c1)C2 [Compound 459, 2-(cyclobutylamino)-N-[(2S)-2-hydroxy-3-{5-methyl-6-[(4-methyl-1,3-oxazol-5-yl)methoxy]-1,2,3,4-tetrahydroisoquinolin-2-yl}propyl]-6-[4-(2-methylpropanoyl)piperazin-1-yl]pyridine-4-carboxamide] | A (a Ki ratio greater than or equal to 10 fold between the Ki in the presence of SAM and the Ki in the presence of MTA) | A* (an IC50 ratio greater than or equal to 10 fold between the IC50 in the HAP1 MTAP-intact cell line and the HAP1 MTAP-deleted cell line) |
| 50 to 500 | 1000 to 10000 | 50 to 500 | 500 to 5000 | < 1000 | CCC(=O)N1CCC(Nc2cc(C(=O)NC[C@H](O)CN3CCc4cc(OCc5cnco5)ccc4C3)ccn2)CC1 [Compound 460, N-[(2S)-2-hydroxy-3-[6-(oxazol-5-ylmethoxy)-3,4-dihydro-1H-isoquinolin-2-yl]propyl]-2-[(1-propanoyl-4-piperidyl)amino]pyridine-4-carboxamide] | A (a Ki ratio greater than or equal to 10 fold between the Ki in the presence of SAM and the Ki in the presence of MTA) | B* (an IC50 ratio greater than or equal to 3 fold but lower than 10 fold between the IC50 in the HAP1 MTAP-intact cell line and the HAP1 MTAP-deleted cell line) |
| 50 to 500 | ≥ 10000 | 50 to 500 | 500 to 5000 | ≥ 10000 | CC(C)N1CCN(c2cc(C(=O)NC[C@H](O)CN3CCc4cc(OCc5cnco5)ccc4C3)cc(NC3CCC3)n2)CC1 [Compound 462, (S)-2-(cyclobutylamino)-N-(2-hydroxy-3-(6-(oxazol-5-ylmethoxy)-3,4-dihydroisoquinolin-2(1H)-yl)propyl)-6-(4-isopropylpiperazin-1-yl)isonicotinamide] | A (a Ki ratio greater than or equal to 10 fold between the Ki in the presence of SAM and the Ki in the presence of MTA) | C* (an IC50 ratio of less than 3 fold between the IC50 in the HAP1 MTAP-intact cell line and the HAP1 MTAP-deleted cell line) |
